Values quoted from earlier work as cited in US7838544B2, “Heterocyclic inhibitors of 11-β hydroxyl steroid dehydrogenase type 1 and methods of using the same” (Incyte Corporation, priority 2006, dated 2010).

Molecular target: T1, 11βHSD1 in the eye (Homo sapiens, UniProt P28845)
T1 construct: host or cells: eye of healthy volunteers, in vivo (11βHSD1 localized to non-pigmented epithelial cells)
Settings: healthy volunteers, after seven days of carbenoxolone treatment

T1 sequence (P28845 whole entry): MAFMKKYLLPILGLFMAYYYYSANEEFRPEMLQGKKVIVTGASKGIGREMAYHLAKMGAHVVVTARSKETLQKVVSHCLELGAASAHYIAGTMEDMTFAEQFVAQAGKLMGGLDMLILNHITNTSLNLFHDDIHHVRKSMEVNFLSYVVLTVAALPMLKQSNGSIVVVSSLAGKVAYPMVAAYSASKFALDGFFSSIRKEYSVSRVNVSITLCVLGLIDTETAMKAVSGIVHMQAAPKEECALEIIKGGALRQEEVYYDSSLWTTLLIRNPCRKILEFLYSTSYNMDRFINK

reduction of intra-ocular pressure (IOP): 18%
Compound: CC1(C)[C@@H](OC(=O)CCC(=O)O)CC[C@]2(C)[C@H]3C(=O)C=C4[C@@H]5C[C@@](C)(C(=O)O)CC[C@]5(C)CC[C@@]4(C)[C@]3(C)CC[C@@H]12 [carbenoxolone]
